Converted amounts (≈) assume the structure as drawn.
How the values were obtained:
PI3Ka = PI3Ka (Homo sapiens (Human), UniProt P42336); assay: Z'-LYTE / Adapta kinase assay, PI3Ka; format: biochemical; conditions: for inhibition at 0.1 µM: read-out: PI3Ka % Inh. @ 100 nM
Description: (§1) The Z′-LYTE® biochemical assay employs a fluorescence-based, coupled-enzyme format and is based on the differential sensitivity of phosphorylated and non-phosphorylated peptides to proteolytic cleavage (FIG. 6). The peptide substrate is labeled with two fluorophores one at each end—that make up a FRET pair. In the primary reaction, the kinase transfers the gamma-phosphate of ATP to a single tyrosine, serine or threonine residue in a synthetic FRET-peptide. In the secondary reaction, a site-specific protease recognizes and cleaves non-phosphorylated FRET-peptides. Phosphorylation of FRET-peptides suppresses cleavage by the Development Reagent. Cleavage disrupts FRET between the donor (i.e., coumarin) and acceptor (i.e., fluorescein) fluorophores on the FRET-peptide, whereas uncleaved, phosphorylated FRET-peptides maintain FRET. A ratiometric method, which calculates the ratio (the Emission Ratio) of donor emission to acceptor emission after excitation of the donor fluorophore at 400 nm, is used to quantitate reaction progress.
(§2) A significant benefit of this ratiometric method for quantitating reaction progress is the elimination of well-to-well variations in FRET-peptide concentration and signal intensities. As a result, the assay yields very high Z′-factor values (>0.7) at a low percent phosphorylation.
(§3) Both cleaved and uncleaved FRET-peptides contribute to the fluorescence signals and therefore to the Emission Ratio. The extent of phosphorylation of the FRET-peptide can be calculated from the Emission Ratio.
(§4) Enzyme: The ADAPTA universal kinase assay is a homogenous, fluorescent based immunoassay for the detection of ADP. In contrast to ATP depletion assays, the ADAPTA assay is extremely sensitive to ADP formation such that a majority of the signal change occurs in the first 10-20% conversion of ATP to ADP. This makes the ADAPTA universal kinase assay ideally suited for use with low activity kinases.
(§5) The principle of the ADAPTA universal kinase assay is outlined below. The assay itself can be divided into two phases: a kinase reaction phase, and an ADP detection phase. In the kinase reaction phase, all components required for the kinase reaction are added to the well, and the reaction is allowed to incubate for 60 minutes.
(§6) Z′-LYTE® Assay Conditions:
(§7) Test Compounds: The Test Compounds are screened in 1% DMSO (final) in the well. For 10 point titrations, 3-fold serial dilutions are conducted from the starting concentration.
(§8) Peptide/Kinase Mixtures: All Peptide/Kinase Mixtures are diluted to a 2× working concentration in the appropriate Kinase Buffer.
(§9) ATP Solution: All ATP Solutions are diluted to a 4× working concentration in Kinase Buffer (50 mM HEPES pH 7.5, 0.01% BRIJ-35, 10 mM MgCl2, 1 mM EGTA). ATP Km apparent is previously determined using a Z′-LYTE® assay.
(§10) Development Reagent Solution: The Development Reagent is diluted in Development Buffer. […]
(§11) 2.5 μL—4× Test Compound or 100 nL 100× plus 2.4 μL kinase buffer. 2. 5 μL—2× Peptide/Kinase Mixture. 3. 2.5 μL—4× ATP Solution. 4. 30-second plate shake. 5. 60-minute Kinase Reaction incubation at room temperature. 6. 5 μL—Development Reagent Solution. 7. 30-second plate shake. 8. 60-minute Development Reaction incubation at room temperature. 9.

DNA-PK = DNA-PK (Homo sapiens (Human), UniProt P78527); assay: Z'-LYTE / Adapta kinase assay, DNA-PK; format: biochemical; conditions: for inhibition at 0.1 µM: read-out: DNA-PK % Inh. @ 100 nM
Description: as §1, §2, §3, §4, §5, §6, §7, §8, §9, §10, §11

[1] = Solubility determination (PBS 7.4, SIF, SGF); format: physicochemical; conditions: simulated intestinal fluid (SIF), kinetic from dmso stock; simulated intestinal fluid pH 6.8, 25° C., 2 hours; read-out: Solubility SIF
Experimental: Preparation of stock solutions: The stock solutions of test compounds and control compound diclofenac were prepared in DMSO at the concentrations of 10 mM.
Simulated Gastric Fluid (SGF): An aqueous mixture including hydrochloric acid, sodium chloride, and pepsin (pH=1.2).
Simulated Intestinal Fluid (SIF): Prepared by dissolving 6.8 g of KH2PO4 into about 500 mL ultrapure water and adjust the solution to a pH 6.8 with 0.1 M NaOH. 10 g trypsin is then dissolved into ultrapure water. The two solutions are mixed well and diluted with ultrapure water to a final volume of 1000 mL.
485 μL of (SIF, SGF, PBS 7.4, FESSIF, or FESSGF) was added into each vial of the cap-less Solubility Sample plate. The assay was performed in duplicate. Add one stir stick to each vial and seal using a molded PTFE/Silicone plug. […] After completion of the 2 hours, plugs were removed and the stir sticks were removed using a big magnet, the samples from the Solubility Sample plate were transferred into the filter plate. Using the Vacuum Manifold, all the samples were filtered. Aliquot of 5 μL and 5 μL DMSO were taken from the filtrate followed by addition of 490 μL of a mixture of H2O and acetonitrile containing internal standard (1:1). A certain proportion of ultrapure water was used to dilute the diluent according to the peak shape. The dilution factor was changed according to the solubility values and the LC-MS signal response.
Preparation of 300 μM standards (STD): From the 10 mM DMSO STD plate, 6 μL was transferred into the remaining empty plate, and then 194 μL of DMSO was added to that plate to have a STD concentration of 300 μM. From the 300 μM DMSO STD plate, 5 μL DMSO STD and 5 μL SIF was transferred into the remaining empty plate, and then 490 μL of a mixture of H2O and acetonitrile containing internal standard (1:1) was added to that plate to have a final STD concentration of 3 μM. A certain proportion of ultrapure water was used to dilute the diluent according to the peak shape. The concentrations of the standard samples were changed according to the LC-MS signal response.
Procedure for sample analysis: The plate was placed into the well plate autosampler. The samples were evaluated by LC-MS/MS analysis.
Data analysis: All calculations were carried out using Microsoft Excel. The filtrate was analyzed and quantified against a standard of known concentration using LC coupled with mass spectral peak identification and quantitation. Solubility values of the test compound and control compound were calculated as follows: […]
Any value of the compounds that was not within the specified limits was rejected and the experiment was repeated.

EGFR = EGFR (Homo sapiens (Human), UniProt P00533); assay: Z'-LYTE / Adapta kinase assay, EGFR; format: biochemical; conditions: for inhibition at 0.1 µM: read-out: EGFR % Inh. @ 100 nM
Description: as §1, §2, §3, §4, §5, §6, §7, §8, §9, §10, §11

Chain of EGFR (P00533 25-1210): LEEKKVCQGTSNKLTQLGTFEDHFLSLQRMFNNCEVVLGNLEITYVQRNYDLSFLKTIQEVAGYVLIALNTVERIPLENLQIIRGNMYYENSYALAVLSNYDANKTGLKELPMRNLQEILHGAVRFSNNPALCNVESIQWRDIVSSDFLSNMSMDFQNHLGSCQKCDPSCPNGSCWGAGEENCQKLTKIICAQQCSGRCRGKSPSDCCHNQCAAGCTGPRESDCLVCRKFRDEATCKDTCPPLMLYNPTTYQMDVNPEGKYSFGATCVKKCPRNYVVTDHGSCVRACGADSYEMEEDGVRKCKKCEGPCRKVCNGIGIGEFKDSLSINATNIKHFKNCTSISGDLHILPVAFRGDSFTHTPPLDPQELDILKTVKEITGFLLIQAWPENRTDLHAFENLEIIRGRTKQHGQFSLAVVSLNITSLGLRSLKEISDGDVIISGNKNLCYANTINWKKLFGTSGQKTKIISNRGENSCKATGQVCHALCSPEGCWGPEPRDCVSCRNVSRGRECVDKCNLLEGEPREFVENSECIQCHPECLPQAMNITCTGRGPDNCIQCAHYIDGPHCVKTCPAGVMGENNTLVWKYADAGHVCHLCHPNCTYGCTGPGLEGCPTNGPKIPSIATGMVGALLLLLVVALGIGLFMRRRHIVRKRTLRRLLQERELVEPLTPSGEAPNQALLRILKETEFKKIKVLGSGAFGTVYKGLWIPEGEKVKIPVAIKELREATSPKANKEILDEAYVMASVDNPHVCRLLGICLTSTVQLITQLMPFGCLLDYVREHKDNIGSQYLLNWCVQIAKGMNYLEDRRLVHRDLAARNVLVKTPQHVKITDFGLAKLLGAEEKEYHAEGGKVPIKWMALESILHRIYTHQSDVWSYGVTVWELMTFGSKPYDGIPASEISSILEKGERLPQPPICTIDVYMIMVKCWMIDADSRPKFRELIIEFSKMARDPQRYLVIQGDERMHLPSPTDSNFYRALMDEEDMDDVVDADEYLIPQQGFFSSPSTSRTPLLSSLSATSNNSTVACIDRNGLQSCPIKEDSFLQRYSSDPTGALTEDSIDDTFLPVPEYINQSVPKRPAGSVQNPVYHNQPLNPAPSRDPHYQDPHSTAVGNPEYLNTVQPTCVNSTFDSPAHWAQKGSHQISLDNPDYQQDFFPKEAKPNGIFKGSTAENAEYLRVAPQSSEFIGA
Chain of PI3Ka (P42336 whole entry): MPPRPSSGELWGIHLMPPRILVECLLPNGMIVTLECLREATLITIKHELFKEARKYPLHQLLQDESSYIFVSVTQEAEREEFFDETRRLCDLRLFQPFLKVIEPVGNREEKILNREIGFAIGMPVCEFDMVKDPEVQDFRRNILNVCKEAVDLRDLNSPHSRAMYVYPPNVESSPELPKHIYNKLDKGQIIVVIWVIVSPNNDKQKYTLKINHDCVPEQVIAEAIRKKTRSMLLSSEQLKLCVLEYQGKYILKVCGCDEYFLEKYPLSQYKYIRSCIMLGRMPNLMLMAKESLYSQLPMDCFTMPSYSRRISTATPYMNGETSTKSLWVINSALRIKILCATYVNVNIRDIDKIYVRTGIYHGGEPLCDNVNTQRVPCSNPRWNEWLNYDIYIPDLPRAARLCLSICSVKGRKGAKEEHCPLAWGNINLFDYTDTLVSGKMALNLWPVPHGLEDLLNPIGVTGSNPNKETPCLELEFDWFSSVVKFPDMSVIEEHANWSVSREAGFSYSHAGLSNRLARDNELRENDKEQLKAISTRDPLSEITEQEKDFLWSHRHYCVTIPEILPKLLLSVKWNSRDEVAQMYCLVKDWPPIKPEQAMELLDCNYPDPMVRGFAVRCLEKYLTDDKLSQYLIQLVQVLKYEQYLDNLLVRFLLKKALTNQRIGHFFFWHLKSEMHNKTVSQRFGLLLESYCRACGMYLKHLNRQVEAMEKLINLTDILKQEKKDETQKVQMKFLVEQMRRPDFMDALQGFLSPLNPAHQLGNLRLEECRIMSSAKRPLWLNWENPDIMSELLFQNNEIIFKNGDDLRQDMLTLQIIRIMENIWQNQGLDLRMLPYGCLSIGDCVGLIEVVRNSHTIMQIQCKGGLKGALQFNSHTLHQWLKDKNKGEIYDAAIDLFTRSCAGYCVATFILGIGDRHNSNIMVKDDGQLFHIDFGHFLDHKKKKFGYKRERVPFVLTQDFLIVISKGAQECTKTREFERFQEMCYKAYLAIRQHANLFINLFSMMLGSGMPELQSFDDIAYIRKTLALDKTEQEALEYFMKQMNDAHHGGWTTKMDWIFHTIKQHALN
Chain of PI3Ka (P27986 whole entry partner): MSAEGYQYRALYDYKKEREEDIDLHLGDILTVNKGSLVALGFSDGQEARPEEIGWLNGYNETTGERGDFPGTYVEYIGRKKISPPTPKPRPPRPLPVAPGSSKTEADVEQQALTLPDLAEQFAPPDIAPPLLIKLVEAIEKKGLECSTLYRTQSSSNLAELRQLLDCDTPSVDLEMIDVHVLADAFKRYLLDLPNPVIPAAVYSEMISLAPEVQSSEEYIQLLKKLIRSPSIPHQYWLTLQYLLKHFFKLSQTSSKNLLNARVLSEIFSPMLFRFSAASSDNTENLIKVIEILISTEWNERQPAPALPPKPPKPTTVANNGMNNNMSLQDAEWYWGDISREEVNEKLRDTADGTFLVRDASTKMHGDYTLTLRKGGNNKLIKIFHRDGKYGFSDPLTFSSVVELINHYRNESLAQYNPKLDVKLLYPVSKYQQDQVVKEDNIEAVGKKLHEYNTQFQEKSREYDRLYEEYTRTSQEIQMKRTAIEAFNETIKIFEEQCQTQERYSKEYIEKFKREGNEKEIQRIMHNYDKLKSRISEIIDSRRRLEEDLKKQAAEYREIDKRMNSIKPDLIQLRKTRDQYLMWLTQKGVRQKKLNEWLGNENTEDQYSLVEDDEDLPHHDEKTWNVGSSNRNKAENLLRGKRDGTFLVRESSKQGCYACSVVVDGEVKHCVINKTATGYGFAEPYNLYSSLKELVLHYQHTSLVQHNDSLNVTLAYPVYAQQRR

Row | SMILES | inhibition at 0.1 µM (PI3Ka) [%] | inhibition at 0.1 µM (DNA-PK) [%] | solubility at 2 h [1] [µM] | inhibition at 0.1 µM (EGFR) [%] | IC50 (PI3Ka) [nM] | IC50 (DNA-PK) [nM] | IC50 (EGFR) [nM]
1 | CC(Nc1ncnc2ccc(-c3cnc(N)nc3)cc12)c1ccccc1 (stereo not shown) [Compound 7, 6-(2-aminopyrimidin-5-yl)-N-(1-phenylethyl)quinazolin-4-amine] | 10 to 80 | 10 to 80 | 20 to 100 (≈ 6.85 to 34.2 µg/mL) | 80 to 90 |  |  | 
2 | COc1cc(-c2ccc3ncnc(NC(C)c4ccccc4)c3c2)cnc1OC (stereo not shown) [Compound 22, 6-(5,6-dimethoxy-3-pyridyl)-N-(1-phenylethyl) quinazolin-4-amine] | 10 to 80 | 10 to 80 | 20 to 100 (≈ 7.73 to 38.6 µg/mL) |  | 20 to 200 | > 200 | 
3 | CC(Nc1c(C#N)cnc2ccc(-c3n[nH]c4cnccc34)cc12)c1ccccc1 (stereo not shown) [Compound 125, 4-(1-phenylethylamino)-6-(1H-pyrazolo [3,4-c]pyridin-3-yl)quinoline-3-carbonitrile] | < 10 | 10 to 80 |  | > 90 |  |  | 
4 | COc1ncc(-c2ccc3ncc(C#N)c(NC(C)c4ccccc4)c3c2)cc1C#N (stereo not shown) [Compound 126, 6-(5-cyano-6-methoxy-3-pyridyl)-4-(1-phenylethylamino) quinoline-3-carbonitrile] | 10 to 80 | < 10 |  | 10 to 80 |  |  | 
5 | CC(Nc1c(C#N)cnc2ccc(-c3cccc(-c4n[nH]c(=O)o4)c3)cc12)c1ccccc1 (stereo not shown) [Compound 127, 6-[3-(2-oxo-3H-1,3,4-oxadiazol-5-yl)phenyl]-4-(1-phenylethylamino) quinoline-3-carbonitrile] | < 10 | 10 to 80 |  | 80 to 90 |  |  | 
6 | CC(Nc1c(C#N)cnc2ccc(-c3cccc(-c4nnc[nH]4)c3)cc12)c1ccccc1 (stereo not shown) [Compound 128, 4-(1-phenylethylamino)-6-[3-(4H-1,2,4-triazol-3-yl)phenyl]quinoline-3-carbonitrile] | < 10 | < 10 |  | 80 to 90 |  |  | 
7 | CC(Nc1c(C#N)cnc2ccc(-c3cncc(-c4n[nH]c(=O)o4)c3)cc12)c1ccccc1 (stereo not shown) [Compound 129, 6-[5-(2-oxo-3H-1,3,4-oxadiazol-5-yl)-3-pyridyl]-4-(1-phenylethylamino) quinoline-3-carbonitrile] | 10 to 80 | 80 to 90 | ≤ 20 | 80 to 90 | 20 to 200 | 2 to 20 | 2 to 20
8 | CC(Nc1c(C#N)cnc2ccc(-c3cc(F)c(O)c(F)c3)cc12)c1ccccc1 (stereo not shown) [Compound 130, 6-(3,5-difluoro-4-hydroxy-phenyl)-4-(1-phenylethylamino) quinoline-3-carbonitrile] | < 10 | < 10 |  | 10 to 80 |  |  | 
9 | CC(Nc1c(C#N)cnc2ccc(-c3cc(Cl)c(O)c(Cl)c3)cc12)c1ccccc1 (stereo not shown) [Compound 131, 6-(3,5-dichloro-4-hydroxy-phenyl)-4-(1-phenylethylamino) quinoline-3-carbonitrile] | < 10 | < 10 |  | 10 to 80 |  |  | 
10 | COc1ncc(-c2ccc3ncnc(N[C@H](C)c4ccccc4)c3c2)cc1C#N [Compound 132, 2-methoxy-5-[4-[[(1R)-1-phenylethyl]amino]quinazolin-6-yl]pyridine-3-carbonitrile] | < 10 | < 10 |  | 10 to 80 |  |  | 
11 | C[C@@H](Nc1ncnc2ccc(-c3cncc(C(=O)NC#N)c3)cc12)c1ccccc1 [Compound 133, (R)-N-cyano-5-(4-((1-phenylethyl)amino)quinazolin-6-yl)nicotinamide] | < 10 | < 10 |  | < 10 |  |  | 
12 | C[C@@H](Nc1ncnc2ccc(-c3cncc(C(=O)N(C)O)c3)cc12)c1ccccc1 [Compound 134, (R)-N-hydroxy-N-methyl-5-(4-((1-phenylethyl)amino)quinazolin-6-yl)nicotinamide] | < 10 | < 10 |  | > 90 |  |  | 
13 | COC(=O)c1cncc(-c2ccc3ncnc(N[C@H](C)c4ccccc4)c3c2)c1 [Compound 135, methyl 5-[4-[[(1R)-1-phenylethyl]amino]quinazolin-6-yl]pyridine-3-carboxylate] | < 10 | < 10 |  | > 90 |  |  | 
14 | C[C@@H](Nc1ncnc2ccc(-c3ccc4c(c3)C(=O)OC4)cc12)c1ccccc1 [Compound 136, 6-[4-[[(1R)-1-phenylethyl]amino]quinazolin-6-yl]-3H-isobenzofuran-1-one] | < 10 | < 10 |  | > 90 |  |  | 
15 | C[C@@H](Nc1ncnc2ccc(-c3cccc(-c4nnc[nH]4)c3)cc12)c1ccccc1 [Compound 137, N-[(1R)-1-phenylethyl]-6-[3-(4H-1,2,4-triazol-3-yl)phenyl]quinazolin-4-amine] | 10 to 80 | < 10 |  | > 90 |  |  | 
16 | C[C@@H](Nc1ncnc2ccc(-c3cncc(-c4nnc[nH]4)c3)cc12)c1ccccc1 [Compound 138, (R)-6-(5-(4H-1,2,4-triazol-3-yl)pyridin-3-yl)-N-(1-phenylethyl)quinazolin-4-amine] | < 10 | 10 to 80 |  | > 90 |  |  | 
17 | CC(Nc1ncnc2ccc(-c3cnc4cnccn34)cc12)c1ccccc1 (stereo not shown) [Compound 139, 6-imidazo[1,2-a]pyrazin-3-yl-N-(1-phenylethyl)quinazolin-4-amine] | 10 to 80 | < 10 |  | 10 to 80 |  |  | 
18 | OCC(Nc1ncnc2ccc(-c3cnc4cnccn34)cc12)c1ccccc1 (stereo not shown) [Compound 140, 2-[(6-imidazo[1,2-a]pyrazin-3-ylquinazolin-4-yl)amino]-2-phenyl-ethanol] | < 10 | < 10 |  | 10 to 80 |  |  | 

Reference: patent publication US11673876B2, “Substituted aminobenzyl heteroaryl compounds as EGFR and/or PI3K inhibitors” (Mekanistic Therapeutics LLC, priority 2020, dated 2023)
